Consider 104 compounds from PubChem BioAssay AID1996.

In brackets after ≈: the same amount, converted by molar mass.

The conditions of the series: buffer; pH 7.4; 200.0 µM.
`CCNC(=O)N1CCCC(C(=O)c2ccc(OC)c(OC)c2)C1` (centres undefined): the kinetic solubility turned out to be 35 µg/mL (≈ 109 µM).
Then `CC(=O)C1=C(O)C(=O)N(Cc2ccccc2)C1c1cccc([N+](=O)[O-])c1` (centres undefined), with > 52.9 µg/mL; and `NS(=O)(=O)c1cccc(NC(=O)c2ccc(NS(=O)(=O)c3cccc([N+](=O)[O-])c3)cc2)c1`, with > 71.5 µg/mL; and `Cc1noc(C)c1C(=O)OC(C)C(=O)Nc1ccc2c(c1)OCO2` (centres undefined), with 11.8 µg/mL (≈ 35.5 µM).
`CN(C(=O)Oc1ccc(F)cc1)c1ccccc1` gave a kinetic solubility of 24 µg/mL (≈ 97.9 µM).
`Cc1ncc(/C=C2\C(=O)Nc3ccccc32)[nH]1` had a solubility (kinetic) of 12.1 µg/mL (≈ 53.7 µM).
Turning to `CSc1ncc(CN2CCCC(C(=O)c3cccc(Cl)c3)C2)cn1` (centres undefined), the solubility (kinetic) is 29 µg/mL (≈ 80.1 µM).
For `O=Cc1cn(-c2ccccc2)nc1-c1ccncc1` the value was > 37.4 µg/mL; for `CC(NC(=O)CCC(=O)NC(C)c1ccccc1)c1ccccc1` (centres undefined), 46.2 µg/mL (≈ 142 µM).
For `Cc1ccccc1OCCn1cc(C=O)c2ccccc21` the value was < 0.6 µg/mL.
Then `O=C(CSc1ccccc1)NCCCc1ccccc1`, with > 42.8 µg/mL.
As for `CCCCN(C(=O)c1cccs1)c1c(N)n(Cc2ccccc2)c(=O)[nH]c1=O`, the solubility (kinetic) is 6.1 µg/mL (≈ 15.3 µM).
For `CC(OC(=O)c1cccnc1Cl)C(=O)NCc1ccccc1` (centres undefined) the value was > 47.8 µg/mL; for `O=S(=O)(c1ccc(F)cc1)N1CCN(CCOc2ccccc2)CC1`, 41.1 µg/mL (≈ 113 µM).
Then `COc1ccccc1C(=O)Nc1ccccc1N1CCCCC1`, with 1 µg/mL (≈ 3.22 µM).
For `CC(=O)Nc1ccc(S(=O)(=O)Nc2nccs2)cc1` the value was > 44.6 µg/mL; for `CCOC(=O)c1c(O)c2cccc3c2n(c1=O)CC3`, > 38.9 µg/mL; for `Cc1ccc(-c2cc(C(=O)Nc3cc(C)ccc3O)no2)cc1`, < 0.3 µg/mL.
For `COc1cccc2cc(-c3nc4ccccc4[nH]3)c(=O)oc12`, the kinetic solubility is < 0.3 µg/mL.
For `CNC(=O)COC(=O)CCC(=O)c1cccs1` the value was 31.6 µg/mL (≈ 124 µM).
For `S=c1[nH]c(-c2cccs2)cn1-c1ccccc1` the value was 10.5 µg/mL (≈ 40.6 µM); for `CCOc1ccc(S(=O)(=O)NC(Cc2cnc[nH]2)C(=O)O)cc1` (centres undefined), 25.8 µg/mL (≈ 76 µM).
For `COc1ccc(CCNC(=O)C(C)SCC(=O)Nc2ccc(F)cc2)cc1` (centres undefined) the value was > 58.6 µg/mL; for `NC1=NC(c2ccccc2)=NC1(NC(=O)c1ccccc1)C(Cl)Cl` (centres undefined), 44.4 µg/mL (≈ 123 µM); for `CC(C)(C)N(Cc1ccccc1)C(=O)CN1C(=O)c2ccccc2C1=O`, 0.8 µg/mL (≈ 2.28 µM).
Turning to `Cc1ccc2ccc(S(=O)(=O)NCc3ccco3)cc2c1`, the kinetic solubility was determined as 37 µg/mL (≈ 123 µM).
Then `COc1ccc(CN2C(=O)c3ccccc3C2OC)cc1` (centres undefined), with > 42.5 µg/mL.
Take `COc1ccc(C(=O)OC(C)CN2CCOCC2)cc1.Cl` (centres undefined): the kinetic solubility was > 47.4 µg/mL.
As to `CCCC(=O)Nc1ccc(-c2cn3cccnc3n2)cc1`, the solubility (kinetic) was > 42 µg/mL.
For `NC(=O)c1ccc(NC(=O)COc2cccc3ccccc23)cc1` the value was 1.1 µg/mL (≈ 3.43 µM); for `COc1nc(-c2ccccc2)c2cc(C)ccc2n1`, 15.4 µg/mL (≈ 61.5 µM); for `C[C@@H](C(=O)N1CCN(c2ccccc2)CC1)N1C(=O)C2CC=CCC2C1=O` (some centres undefined), > 55.1 µg/mL.
For `CC(C)NC(=O)/C=C/C(=O)O` the value was 22.3 µg/mL (≈ 142 µM).
In turn, `CC(C)=CC1C(C(=O)NCCc2ccccc2)C1(C)C` (centres undefined) showed a solubility (kinetic) of 27.6 µg/mL (≈ 102 µM).
With `O=C1Nc2ccc(S(=O)(=O)NCC3CCCO3)c3cccc1c23` (centres undefined), the kinetic solubility is > 49.9 µg/mL.
As for `COc1ccc(-c2cc(C(=O)Nc3cc(C)on3)no2)cc1`, the solubility (kinetic) is < 0.2 µg/mL.
Then `Cc1cc(=O)[nH]c(SCC(=O)N2C(C)CCCC2C)n1` (centres undefined), with 38.3 µg/mL (≈ 130 µM).
For `Cc1cc(C(=O)CCC(=O)N2CCN(c3ccccc3)CC2)c(C)s1` the value was 46.5 µg/mL (≈ 130 µM); for `O=C(NCC1CCCCC1)c1ccc(=O)[nH]c1`, > 35.1 µg/mL; for `CC(C)(C)NC(=O)COc1ccc(CNCc2ccccn2)cc1.Cl`, > 54.6 µg/mL.
Take `CC(O)c1ccc(OCCN(C)c2ccccn2)cc1` (centres undefined): the solubility (kinetic) was > 40.9 µg/mL.
For `COc1ccc(C)cc1NC(=O)Nc1ccccc1SC` the value was 1.3 µg/mL (≈ 4.3 µM).
For `S=C(Nc1ccc2[nH]ccc2c1)NC1CCCCC1` the value was 37 µg/mL (≈ 135 µM); for `CCCCOc1ccc(C(=O)NCC(=O)NNC(=O)c2ccco2)cc1`, > 53.9 µg/mL.
Then `CN(Cc1ccccc1)S(=O)(=O)c1ccc(NC(=O)c2ccccc2C(=O)O)cc1`, with 61.7 µg/mL (≈ 145 µM); and `Cc1cc(NC(=O)c2cccc(C)c2[N+](=O)[O-])no1`, with < 0.2 µg/mL; and `CC(C)COC(=O)n1c(SCC(N)=O)nc2ccccc21`, with 16.3 µg/mL (≈ 53 µM).
As to `CN1C(=O)N(CC(=O)Nc2nccs2)C(=O)C12CCCCC2`, the kinetic solubility is > 48.4 µg/mL.
With `O=C(CSc1nnc(C2CC2)n1C1CC1)c1ccccc1F`, the solubility (kinetic) is > 47.6 µg/mL.
Then `COC(=O)CN1C(=O)NC2(CCCc3ccccc32)C1=O` (centres undefined), with > 43.2 µg/mL; and `Cc1ccc(C(=O)N2CCCC(C(=O)c3cc(F)ccc3F)C2)s1` (centres undefined), with 52.3 µg/mL (≈ 150 µM).
For `CCn1c(=S)[nH]c2cc(S(=O)(=O)N3CCOCC3)ccc21`, the kinetic solubility was 34.2 µg/mL (≈ 104 µM).
For `CCCCCC(O)(CCN1CCCCC1)c1ccc(OCC)cc1.Cl` (centres undefined) the value was 53.5 µg/mL.
Then `Cc1noc2ncnc(N3CCCC3)c12`, with > 30.6 µg/mL.
In the case of `CC(=O)N1c2ccc(S(=O)(=O)N3CCCCC3)cc2CC1C` (centres undefined), the solubility (kinetic) was > 48.4 µg/mL.
Then `O=C(NCc1cccc(F)c1F)C1CCC(=O)N(C2CC2)C1` (centres undefined), with 38.1 µg/mL (≈ 124 µM); and `CC(=O)NC(=S)Nc1ccc(NC(=O)c2cccnc2)cc1`, with 10.2 µg/mL (≈ 32.4 µM); and `Clc1ccc(CN2CCN(c3ncccn3)CC2)cc1Cl`, with 13 µg/mL (≈ 40.2 µM).
Then `Cc1ccccc1C(=O)OCC(=O)Nc1cccc(S(=O)(=O)NC2=NCCC2)c1`, with > 62.3 µg/mL; and `CCN(CC)CCn1c(NC(=O)c2ccc(C)cc2)nc2ccccc21`, with 25.9 µg/mL (≈ 73.9 µM).
Then `CC(C)(C)NC(=S)NC1CC1`, with 25.8 µg/mL (≈ 150 µM); and `CN1C(=O)Nc2cccc3cccc1c23`, with 10.1 µg/mL (≈ 51 µM); and `Cc1cccc2sc(NS(=O)(=O)c3ccccc3)nc12`, with > 45.7 µg/mL.
In the case of `Cc1c(C)[n+](=O)c2c(n1[O-])C(Br)CCC2Br` (centres undefined), the solubility (kinetic) is > 52.8 µg/mL.
In the case of `CCOc1cccc(C(=O)Nc2ccc3ccccc3c2)c1`, the solubility (kinetic) is < 0.6 µg/mL.
For `CN1C(=O)N(c2ccc(Cl)cc2)C(C)(O)CC1(C)C` (centres undefined) the value was > 42.4 µg/mL; for `Cc1ccccc1Nc1nc(N)nc(CSc2nncn2C)n1`, > 49.3 µg/mL; for `COC(=O)C1CN(C(=O)c2ccc(OC(F)F)cc2)c2ccccc2O1` (centres undefined), 43.1 µg/mL (≈ 119 µM).
Then `CCOC(=O)C1=C(C)NC(=O)NC1/C=C\c1ccccc1` (centres undefined), with 1.3 µg/mL (≈ 4.54 µM); and `O=C(/C=C/c1ccco1)OCC(=O)N1CCCCC1`, with > 39.5 µg/mL.
For `CN(C)CCCNC(NC(=O)/C=C/c1ccccc1)C(Cl)(Cl)Cl` (centres undefined) the value was 44.3 µg/mL (≈ 117 µM); for `CC1CCCC(C)N1C(=O)COC(=O)CCC(=O)c1ccc(F)cc1` (centres undefined), > 52.4 µg/mL.
Turning to `O=C(Nc1ccccc1)Nc1nc(-c2ccccc2)cs1`, the solubility (kinetic) was < 0.2 µg/mL.
For the compound `O=C(O)COCC(=O)Nc1cc(C(F)(F)F)cc(C(F)(F)F)c1`, the solubility (kinetic) is > 51.8 µg/mL.
For `O=C(Nc1ccccc1C(=O)Nc1ccc(Cl)cc1)c1cccnc1` the value was 0.6 µg/mL (≈ 1.71 µM).
For `Cc1ccccc1C(=O)N[C@H](C(=O)OCC(=O)NC1CC1)C(C)C` the value was > 49.9 µg/mL.
For `O=C(Nc1cccc2ccccc12)NC(Cc1ccccc1)C(=O)O` (centres undefined) the value was > 50.2 µg/mL; for `CCNC(=S)N/N=C(\C)c1cccc(OC)c1`, > 37.7 µg/mL; for `Cc1ccc(N2CCN(C(=S)Nc3ccccc3)CC2)cc1`, 1 µg/mL (≈ 3.21 µM).
For the compound `COc1cccc(C(C)NC(=O)Cc2cccs2)c1` (centres undefined), the kinetic solubility is > 41.3 µg/mL.
The compound `Cc1ccc(NC(=O)COC(=O)CCC2CCCC2)cc1S(=O)(=O)N1CCOCC1` yielded a solubility (kinetic) of 15.8 µg/mL (≈ 36 µM).
Then `CCc1cccc(C)c1N1C(=O)CN(Cc2ccccc2)C1=S`, with 12.1 µg/mL (≈ 37.3 µM); and `CSc1nc(C)nc(C2CC2)c1C#N`, with 1.2 µg/mL (≈ 5.85 µM); and `NS(=O)(=O)c1ccc(NC(=O)C(=O)NCCC(=O)O)cc1`, with > 47.3 µg/mL.
Then `CCCCC(=O)NC(=S)Nc1cc([N+](=O)[O-])ccc1OC`, with 0.7 µg/mL (≈ 2.25 µM).
For `COc1ccc(C(=O)NC(=S)N2CCOCC2)cc1OC` the value was > 46.6 µg/mL; for `O=C(Cc1ccc(F)cc1)NCCc1cnc[nH]1`, > 37.1 µg/mL.
For `O=C(Cc1ccc([N+](=O)[O-])cc1)N1CCCc2ccccc21`, the solubility (kinetic) worked out at 39.5 µg/mL (≈ 133 µM).
Then `COc1ccccc1CC(=O)NCCc1ccccc1`, with > 40.4 µg/mL; and `CCc1cccc(NC(=O)COC(=O)/C=C/c2cccs2)c1`, with 8.2 µg/mL (≈ 26 µM); and `COc1ccc(OCCn2cnc(Cl)c2Cl)cc1`, with 41.1 µg/mL (≈ 143 µM).
Then `CNCCCN1c2ccccc2CCc2ccccc21.Cl`, with > 45.4 µg/mL; and `CC1CCC(NC(=O)COC(=O)c2ccco2)CC1` (centres undefined), with > 39.8 µg/mL; and `CC(C(=O)OCC(=O)N1CCCCC1)N1C(=O)c2ccccc2C1=O` (centres undefined), with > 51.7 µg/mL.
Consider `O=C(CC1SCCNC1=O)Nc1cccc([N+](=O)[O-])c1` (centres undefined), for which the solubility (kinetic) was > 44.3 µg/mL.
For `Cn1cccc1C(=O)Nc1ccc(N2CCOCC2)cc1` the value was > 42.8 µg/mL.
For `COc1ccccc1OCC(=O)Nc1cc(S(=O)(=O)N2CCOCC2)ccc1N1CCCCC1` the value was 3.1 µg/mL (≈ 6.33 µM).
For `COCc1nc2ccccc2n1Cc1c(F)cccc1Cl` the value was > 45.7 µg/mL; for `COc1cc(/C=C/C(=O)Nc2ccc(OC)c(S(=O)(=O)N3CCOCC3)c2)ccc1OC(F)F`, 2.6 µg/mL (≈ 5.22 µM).
As to `O=C(NCC1CC1)Nc1cccs1`, the solubility (kinetic) was > 29.4 µg/mL.
As to `Cc1ccsc1CNCCc1ccc(F)cc1`, the kinetic solubility amounted to 27.1 µg/mL (≈ 109 µM).
In turn, `Cc1ccc(NC(=O)NCc2cccnc2)cc1C` showed a solubility (kinetic) of 38.2 µg/mL (≈ 150 µM).
Then `CN1CCN(CCc2nc3cc(NC(=O)c4ccco4)ccc3n2C)CC1`, with > 55.1 µg/mL; and `O=C(Nc1cccc(C(F)(F)F)c1)c1cncs1`, with > 40.8 µg/mL.

In general, kinetic solubility refers to solubility judged after dilution from a stock solution rather than from solid.
